Results taken from patent US9809562B2, “NAT10 modulators for treating or preventing laminopathies, aging and cancer” (CAMBRIDGE ENTERPRISE LIMITED, priority 2014, dated 2017).
Where a name gives a salt, the structure may show the parent alone.

Tests used:
[1] = test system: Lamin A/C depleted (siLMNA) U2OS cells; assay: Nuclear shape rescue (DAPI staining, nuclear circularity) in Lamin A/C depleted cells; type: cell-based, human; conditions: for increase in potency compared to Compound 2 (dose-dependent nuclear shape rescue): DAPI staining; for nuclear shape / nuclear circularity rescue: 16 hours, Compound 2 and 3 50 μM, MB-3 5 μM, FTI 5 μM, nocodazole 200 ng/ml, colchicine 1 μg/ml, latrunculin A 1 μM
Description: U2OS and SaOS-2 osteosarcoma cells, HeLa cervical cancer cells, A431 melanoma cells, NCI-SNU5 gastric cancer cells, MRC-5 lung fibroblast cells and Werner syndrome patient-derived SV40 fibroblast cells were grown in Dulbecco's modified Eagle medium (DMEM, Sigma-Aldrich) supplemented with 10% fetal bovine serum (BioSera), 2 mM L-glutamine, 100 U per ml penicillin, 100 μg ml^−1 streptomycin. Normal skin primary fibroblasts GM03440 and Hutchinson Gilford Progeria Syndrome (HGPS) skin primary fibroblasts AG11498 and AG06297 were purchased from Coriell Cell Repositories and used between passage number 9-12 and 20-23 respectively. Cells were grown in DMEM supplemented as above. RPE-1 retinal pigment epithelial cells were grown in DMEM and Ham F12 mix medium supplemented as above and buffered with sodium bicarbonate. HMV-II melanoma cell line, 22RV1 prostate carcinoma cells, NCI-H82 and NCI-H69 lung carcinoma cells, and NCI-N87 gastric cancer cell lines were grown in RPMI-1640 medium (Sigma-Aldrich) supplemented as above. Stably transfected U2OS cells were maintained in standard medium containing 1 mg ml^−1 G418 (Invitrogen). The siRNA duplexes were obtained from Life Sciences: Lamin A/C stealth RNAi: […] (SEQ ID NO: 1) and […] (SEQ ID NO: 2), NAT10 stealth RNAi: […] (SEQ ID NO: 3), and as control siRNA, stealth RNAi negative control duplexes were used. Plasmid DNA and siRNA transfections were carried out using Lipofectamine 2000 and Lipofectamine RNAiMax (Life Sciences) respectively, following the manufacturer's instructions. Cells were analysed 48 to 72 hours after transfection.
The following KAT and KDAC inhibitors were used in the nuclear shape rescue screen, incubating cells with the molecules for 16 hours: trichostatin A (1 μM), sodium butyrate (5 mM), tubacin (10 μM), SAHA (5 μM), curcumin (10 μM), garcinol (50 μM), anacardic acid (1 μM), MB-3 (5 μM), 4-(4-chlorophenyl)-2-(2-cyclopentylidenehydrazinyl)thiazole (Compound 2) (50 μM), 4-(4-chlorophenyl)-2-(2-cyclopentylidene-1-(prop-2-yn-1-yl)hydrazinyl)thiazole (Compound 3) (50 μM) and cyclopentylidene-[4-(4-cyanophenyl)thiazol-2-yl)hydrazine (Compound 1) (Remodelin) (10 to 50 μM). For HGPS cellular fitness assays, Remodelin was incubated at 1 μM for 1 to 10 days, renewing the medium every 3 days. For long-term senescence assay, cells were kept and passaged in medium containing 1 μM Remodelin or DMSO only for 12 population doublings. Senescence was assessed after 8 days of Remodelin treatment when cells were at Population Doubling 12, and then after several weeks of Remodelin treatment, when cells reached Population Doubling 24 using the Senescence β-Galactosidase Staining Kit #9860 from Cell Signaling. Nocodazole, colchicine and latrunculin A (Sigma-Aldrich) were used at 200 ng/ml, 1 μg/ml and 1 μM respectively. Aphidicolin (Sigma-Aldrich) was used at 5 μg/ml for 16 h. Farnesyltransferase inhibitor FTI-277 was purchased from Tocris Bioscience and used at 5 μM. ATMi (KU55933) and ATRi (ATR-45) were obtained from Tocris Bioscience and from the Ohio State University respectively and used at 10 μM and 500 nM. Pifithrin alpha (Sigma-Aldrich) was used at 10 μM.
CellProfiler software was used to quantify nuclear circularity and nuclear area from DAPI staining pictures, using the “object size shape” measurement. The AreaShape measurement allowed the calculation of the Form Factor index ([…]) corresponding to circularity (a Form Factor of 1 reflecting a perfect circle), as well as the calculation of nuclear Area.
Lamin A/C was depleted by siRNA in U2OS cells (siLMNA) to induce misshapen nuclei. Cells were then treated for 16 h with various analogues of Compound 2 and nuclear shape rescue was analysed by DAPI staining. The results are shown in FIG. 18 and FIG. 19 which display the structures of the tested molecules and their ability to rescue nuclear shape.

siLMNA cells = assay: Cell cycle profile by flow cytometry; type: cell-based, human
Description: 10 μM EdU was incubated for 2 hours when indicated. Cells were fixed in 4% paraformaldehyde (Sigma-Aldrich). EdU was fluorescently labeled using the Click-iT® EdU Flow Cytometry Assay Kit (Life Sciences). DNA was stained with […] propidium iodide (Sigma-Aldrich) in phosphate buffer solution (PBS) containing 0.1% Triton-X-100 and 0.5 mg ml^−1 DNase free RNase A (Sigma-Aldrich). Samples were processed on a FACSCalibur flow cytometer equipped with CellQuest software (Becton Dickinson). Results were analysed using FlowJo software (TreeStar).

Row | SMILES | increase in potency compared to Compound 2 (dose-dependent nuclear shape rescue) [1] | increase in potency compared to Compound 2 (dose-dependent nuclear shape rescue) ([1]; listed as Remodelin) [fold] | accumulation of cells in mitosis (siLMNA cells) | nuclear shape / nuclear circularity rescue [1] | effect on cell cycle profile (siLMNA cells; siLMNA cells)
1 | N#Cc1ccc(-c2csc(NN=C3CCCC3)n2)cc1 [Compound 1, 4-(4-Cyanophenyl)-2-(2-cyclopentylidenehydrazinyl)thiazole] | five-fold | ~5 | cells did not accumulate in mitosis |  | 
2 | C#CCN(N=C1CCCC1)c1nc(-c2ccc(Cl)cc2)cs1 [Compound 3, 4-(4-Chlorophenyl)-2-(2-cyclopentylidene-1-(prop-2-yn-1-yl)hydrazinyl)thiazole] |  |  |  | equivalent cellular activity as Compound 2 | 
3 | Clc1ccc(-c2csc(NN=C3CCCC3)n2)cc1 [Compound 2, 4-(4-Chlorophenyl)-2-(2-cyclopentylidenehydrazinyl)thiazole Hydrochloride Salt] |  |  |  | completely restoring nuclear shape and circularity | without markedly affecting the cell cycle profile
